The values that follow come from paper PMC2874645 (Aquatic toxicology (Amsterdam, Netherlands), 2010).

This assay has as its target T1, farnesoid X receptor alpha (Fxrα) (Oryzias latipes, UniProt H2M6M7).
T1 sequence (H2M6M7 201-485): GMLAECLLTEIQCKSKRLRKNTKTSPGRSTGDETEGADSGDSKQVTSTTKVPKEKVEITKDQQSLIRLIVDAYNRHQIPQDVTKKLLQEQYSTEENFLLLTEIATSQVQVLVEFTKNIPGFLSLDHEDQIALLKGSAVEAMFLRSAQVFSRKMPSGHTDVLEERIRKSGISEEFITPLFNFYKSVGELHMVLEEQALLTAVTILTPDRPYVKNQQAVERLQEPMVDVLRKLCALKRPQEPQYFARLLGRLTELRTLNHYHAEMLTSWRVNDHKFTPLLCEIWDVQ
T1 sequence (Q9UBK2 1-798 partner): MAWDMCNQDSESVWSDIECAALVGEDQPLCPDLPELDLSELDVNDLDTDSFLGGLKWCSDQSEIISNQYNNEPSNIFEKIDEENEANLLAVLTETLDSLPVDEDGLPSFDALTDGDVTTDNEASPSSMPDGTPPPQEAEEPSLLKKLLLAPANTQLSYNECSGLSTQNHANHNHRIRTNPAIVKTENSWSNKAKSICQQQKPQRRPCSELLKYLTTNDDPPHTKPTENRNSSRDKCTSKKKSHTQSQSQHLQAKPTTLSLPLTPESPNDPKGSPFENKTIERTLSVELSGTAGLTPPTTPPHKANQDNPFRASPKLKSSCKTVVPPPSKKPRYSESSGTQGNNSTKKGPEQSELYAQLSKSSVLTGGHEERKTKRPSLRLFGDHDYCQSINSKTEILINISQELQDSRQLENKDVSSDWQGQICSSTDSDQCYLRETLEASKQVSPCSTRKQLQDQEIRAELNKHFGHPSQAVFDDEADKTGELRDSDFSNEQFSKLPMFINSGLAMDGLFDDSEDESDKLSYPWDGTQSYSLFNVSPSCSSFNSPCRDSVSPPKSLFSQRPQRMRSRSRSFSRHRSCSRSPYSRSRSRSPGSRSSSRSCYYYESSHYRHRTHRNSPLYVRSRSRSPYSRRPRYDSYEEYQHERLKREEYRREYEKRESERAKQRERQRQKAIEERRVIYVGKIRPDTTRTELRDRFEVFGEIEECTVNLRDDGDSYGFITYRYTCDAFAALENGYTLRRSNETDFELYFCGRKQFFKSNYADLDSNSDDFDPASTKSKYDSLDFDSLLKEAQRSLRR
Kind of assay: Gal4-LBD luciferase reporter in PLHC-1 cells at […]. The settings on record: read-out: Gal4-LBD luciferase reporter in PLHC-1 cells at 100 μM. (In a reporter assay the amount or activity of a reporter protein is the signal.)

With `C[C@H](CCC(=O)NCCS(=O)(=O)O)[C@H]1CC[C@H]2[C@@H]3CC[C@@H]4C[C@H](O)CC[C@]4(C)[C@H]3CC[C@]12C` [taurine conjugate of LCA], the fold induction at 100 µM is 10.5. As to `C[C@H](CCC(=O)O)[C@H]1CC[C@H]2[C@@H]3CC[C@@H]4C[C@H](O)CC[C@]4(C)[C@H]3CC[C@]12C` [lithocholic acid], the fold induction at 100 µM was determined as 10.7.
